“Also recorded” adds a separate entry of the source.

The target in data set [1] is thiol-blocked BSA (Bos taurus, UniProt P02769). The data set can be described thus: Selective binding: thiol-blocked BSA, RP-HPLC. Further details: species or system bovine. The settings on record: thiol-blocked BSA 200 μM, ECMal-PROTAC 140 μM, up to 60 minutes. As to the method: To confirm whether the binding of ECMal-PROTAC of example 1 and albumin is specific, thiol-blocked BSA was used. Specifically, thiol-blocked BSA was prepared by mixing 4-maleimidobutyric acid and BSA with a cyc34 blocking agent. The thiol-blocked BSA was diluted with PBS to prepare a solution (200 μM). This was co-incubated by mixing it with the ECMal-PROTAC aqueous solution (140 μM) of example 1 at a 1:1 volume ratio. The culture was collected at incubation times of 0 minutes, 5 minutes, 30 minutes, and 60 minutes. It was quenched with mercaptoethanol, and HPLC spectra for each sample were acquired through concentration gradient of the eluent (ACN/H2O, 20/80 to 80/20 (v/v), 30 minutes).
Sequence of thiol-blocked BSA (P02769 25-607): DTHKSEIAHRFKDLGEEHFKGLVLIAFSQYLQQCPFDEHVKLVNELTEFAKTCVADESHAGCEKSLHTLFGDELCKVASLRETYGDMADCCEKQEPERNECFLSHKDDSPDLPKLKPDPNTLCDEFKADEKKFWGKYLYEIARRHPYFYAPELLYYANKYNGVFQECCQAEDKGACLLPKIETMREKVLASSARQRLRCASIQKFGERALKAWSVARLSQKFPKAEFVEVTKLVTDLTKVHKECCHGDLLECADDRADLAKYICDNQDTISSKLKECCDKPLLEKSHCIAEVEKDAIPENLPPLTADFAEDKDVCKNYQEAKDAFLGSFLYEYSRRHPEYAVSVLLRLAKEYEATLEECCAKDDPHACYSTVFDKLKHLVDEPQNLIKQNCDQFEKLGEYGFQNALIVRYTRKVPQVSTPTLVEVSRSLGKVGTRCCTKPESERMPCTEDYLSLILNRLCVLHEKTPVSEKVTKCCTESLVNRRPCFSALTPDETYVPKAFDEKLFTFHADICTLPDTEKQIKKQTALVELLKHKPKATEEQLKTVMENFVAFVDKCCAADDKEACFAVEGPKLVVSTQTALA
From the HPLC results for the BSA and complex for cancer targeting (ECMal-PROTAC) mixture in Experimental Example 1 and the thiol-blocked BSA and complex for cancer targeting (ECMal-PROTAC) mixture in Experimental Example 2, the reduction in the HPLC peak area associated with the complex for cancer targeting (ECMal-PROTAC) was quantified.

Data set [2] in a line: Particle size by DLS before and after binding to albumin. The data set is classed as physicochemical. The settings on record: before and after binding to BSA. As to the method:
A BSA solution (200 μM) diluted with PBS was co-incubated by mixing it with an ECMal-PROTAC aqueous solution (140 μM) of example 1 at a 1:1 volume ratio.

Data set [3] addresses T1, BRD4 (Mus musculus, UniProt Q9ESU6).
T1 construct: Western blot after PROTAC (ARV-771 release, VHL recruiting)
In words: Western blot, BRD4 degradation in 4T1 cells. It is filed as cell-based. The settings on record: 24 hours. Here is the method: (§1) Accordingly, Western blot analysis was performed to confirm the anticancer ability by evaluating the presence or absence of degradation of BRD4 and other related proteins (e.g., c-Myc and Bcl-2) when cancer cells were treated with the complex for cancer targeting (ECMal-PROTAC) of example 1. The complex for cancer targeting (ECMal-PROTAC) of example 1 and ARV-771 were prepared as samples.
(§2) First, 1×10^5 4T1 cells were dispensed into each well of a 6-well culture plate and cultured for 24 hours at 37° C. and 5% carbon dioxide atmosphere. The cell culture medium was supplemented with various concentrations of ARV-771 (0 to 10 μM) or the complex for cancer targeting (ECMal-PROTAC) of example 1 (0 to 10 μM), and cultured at 37° C. for 24 hours. After the culture was completed, the cells were washed 3 times with PBS, and lysed with a lysis buffer containing 1% […]. Cell debris from the recovered lysate was removed by centrifugation at 12,000 rpm for 25 minutes. After recovering the supernatant, the protein amount was measured using a BCA kit. The supernatant was loaded onto a 10% sodium dodecyl sulfate-polyacrylamide gel. Electrophoresis (SDS-PAGE) was performed, followed by blotting onto a polyvinylidene difluoride (PVDF) membrane. After blotting, the PVDF membrane was treated with 5% BSA-containing tris buffered saline containing 0.1% Tween 20 (TBS-T) for 2 hours to suppress the non-specific binding of IgG (immunoglobulin G). It was immediately exposed to a rabbit anti-mouse primary antibody (1,000:1). After treating at 4° C. for 24 hours, the PVDF membrane was washed 3 times with TBS-T and further incubated with an HRP-conjugated mouse anti-rabbit IgG antibody at room temperature for 1 hour. The immunoreactive bands on the PVDF membrane were analyzed through an ECL (enhanced chemiluminescence) system.
Background: Immunoblotting shows a protein as a band on a membrane.

The subject of data set [4] is c-Myc. In words: Western blot, c-Myc level in 4T1 cells. It is filed as cell-based, mouse. The settings on record: 0 to 10 μM, 24 hours. As to the method:
as §1
as §2, with “After blotting, the PVDF membrane was treated with 5% BSA-containing tris buffered saline containing 0.1% Tween 20 (TBS-T) for 2 hours to suppress the non-specific binding of IgG (immunoglobulin G). It was immediately exposed to a rabbit anti-mouse primary antibody (1,000:1). After treating at 4° C. for 24 hours, the PVDF membrane was washed 3 times with TBS-T and further incubated with an HRP-conjugated mouse anti-rabbit IgG antibody at room temperature for 1 hour.” left out

Data set [5] has as its system Bcl-2. The data set can be described thus: Western blot, Bcl-2 level in 4T1 cells. The data set is classed as cell-based, mouse. The settings on record: 0 to 10 μM, 24 hours. As to the method: as §1
as §2, with “After blotting, the PVDF membrane was treated with 5% BSA-containing tris buffered saline containing 0.1% Tween 20 (TBS-T) for 2 hours to suppress the non-specific binding of IgG (immunoglobulin G). It was immediately exposed to a rabbit anti-mouse primary antibody (1,000:1). After treating at 4° C. for 24 hours, the PVDF membrane was washed 3 times with TBS-T and further incubated with an HRP-conjugated mouse anti-rabbit IgG antibody at room temperature for 1 hour.” left out

Data set [6] has as its system 4T1 cells. In words: CCK-8 assay, toxicity on cancer cells. The data set is classed as cell-based, mouse. Conditions: CCK-8, 48 hours. Here is the method:
The toxicity of ARV-771 and ECMal-PROTAC on cancer cells was analyzed by the CCK-8 (cell counting kit-8) assay. 4T1 cells were dispensed into a 96-well culture plate at 3×10^3 cells per well. They were cultured for 24 hours at 37° C. and 5% carbon dioxide atmosphere. The cells were treated with different concentrations of ARV-771 (0.01 to 100 μM), the complex for cancer targeting (ECMal-PROTAC) of example 1 (0.01 to 100 μM), and the complex for cancer targeting (Mal-PROTAC) of example 2 (0.01 to 100 μM) separately, and cultured for 48 hours. After exposing each well to 10% CCK-8-containing culture media for 30 minutes, the viability of 4T1 cells treated with ARV-771 or 4T1 cells treated with ECMal-PROTAC or Mal-PROTAC was analyzed with a microplate reader. The change in cell viability according to the concentration of ARV-771 or ECMal-PROTAC or Mal-PROTAC was calculated using GraphPad Prism 8 software (GraphPad Software, San Diego, CA, USA) by fitting the IC50 (haf-maximal inhibitory concentration) value.

Data set [7] addresses T1, BRD4. The data set can be described thus: Western blot of excised cancer tissue, BRD4. The data set is classed as in vivo. Here is the method:
(§3) The control group was administered saline (10 mg/kg) once every 3 days for 15 days through the tail vein (total 4 administrations). The comparison group was administered ARV-771 (10 mg/kg) once every 3 days for 15 days through the tail vein (total 4 administrations). The example group was administered ECMal-PROTAC 10 mg/kg (wquiv. to ARV-771) of example 1 once every 3 days for 15 days through the tail vein (total 4 administrations).

The test system of data set [8] is c-Myc. In words: Western blot of excised cancer tissue, c-Myc. The data set is classed as in vivo, mouse. As to the method: as §3
The test system of data set [9] is Bcl-2. In words: Western blot of excised cancer tissue, Bcl-2. The data set is classed as in vivo, mouse. Here is the method: as §3
Data set [10] concerns BRD4 and c-Myc. In words: Immunofluorescence of excised cancer tissue (DAPI, anti-BRD4, anti-c-Myc). The data set is classed as in vivo, mouse. The settings on record: vs comparison group and control group. As to the method: as §3
FIG. 33 is an image taken with a confocal laser scanning microscope after staining cancer tissue excised from the control group (Control, Saline), the comparison group (ARV-771, intravenous injection), and the example group (ECMal-PROTAC, intravenous injection) with DAPI, anti-BRD4, and anti-c-Myc.

The target in data set [11] is T1, BRD4. The data set can be described thus: DAB staining of excised cancer tissue. The data set is classed as in vivo. The settings on record: FIG. 34. As to the method: as §3
FIG. 34 is the result of DAB staining of cancer tissue excised from the control group, the comparison group, and the example group.

Where [12] appears, read: Western blot, vs ARV-771 group (so in the source).

For `Cc1ncsc1-c1ccc([C@H](C)NC(=O)[C@@H]2C[C@@H](OC(=O)CCCCn3nnc4c3CCC3C(CC4)C3COC(=O)NCCOCCOCCNC(=O)CCN3C(=O)C=CC3=O)CN2C(=O)[C@@H](NC(=O)COCCCOCCNC(=O)C[C@@H]2N=C(c3ccc(Cl)cc3)c3c(sc(C)c3C)-n3c(C)nnc32)C(C)(C)C)cc1` (stereo partly shown) [ECMal-PROTAC], the “interaction with thiol-blocked BSA” value in data set [1] is “did not form an interaction”. The “change in particle size on binding to albumin” value in data set [2] is “no significant change in particle size”. The “degradation of overexpressed BRD4 protein” value in data set [3] (0 to 10 μM) was “degrades the overexpressed BRD4 protein in a concentration-dependent manner; also recorded: induce BRD4 deficiency”. Moreover, in [3] (Western blot, read-out: DC50 (half-maximal degradation concentration), BRD4), the DC50 is 1.81 µM. For the same compound, in data set [4], the c-Myc level result is listed as “reduces the levels; also recorded: reduced expression”. Also, the Bcl-2 level entry in data set [5] is “reduces the levels; also recorded: reduced expression”. Besides, in [6], the “IC50 compared to native ARV-771” value is “slight increase in IC50 compared to native ARV-771”. For the same compound, the IC50 (as a rule, the concentration at which inhibition is half-maximal) in data set [6] (Mus musculus, 4T1, FIGS. 15A and 15B, read-out: IC50 against cancer cells) is 7.78 µM. In addition, the “BRD4 level in cancer tissue vs control” value in data set [7] (Western blot, 10 mg/kg) is “much lower levels”. Also, the “BRD4 level in cancer tissue, example group vs comparison group” value in [7] (setting [12]) is “no significant difference”. The “relative expression level of BRD4, fold lower than control group” value in [7] (cancer tissue, FIG. 32) is listed as 7.5 times. For the same compound, the “c-Myc level in cancer tissue vs control” value in data set [8] (Western blot, 10 mg/kg) is “much lower levels”. The “c-Myc level in cancer tissue, example group vs comparison group” value in data set [8] (setting [12]) was “no significant difference”. In addition, the “relative expression level of c-Myc, fold lower than control group” value in [8] (cancer tissue, FIG. 32) amounted to 2.2 times. The “Bcl-2 level in cancer tissue vs control” value in [9] (Western blot, 10 mg/kg) is recorded as “much lower levels”. The “Bcl-2 level in cancer tissue, example group vs comparison group” value in [9] (setting [12]) is reported as “no significant difference”. Further, the “relative expression level of Bcl-2, fold lower than control group” value in [9] (cancer tissue, FIG. 32) stood at 2.3 times. The “fluorescence signals related to c-Myc and BRD4” value in data set [10] is on record as “weaker fluorescence signals”. Further, the “BRD4 deficiency (DAB staining)” value in data set [11] was “BRD4 deficiency was confirmed”.

The values are drawn from patent US20260325542A1, “CANCER TARGETING COMPLEX, AND COMPOSITION COMPRISING SAME FOR PREVENTING OR TREATING CANCER” (EWHA UNIVERSITY - INDUSTRY COLLABORATION FOUNDATION, priority 2023, published 2026).
